Broadly, the inhibition is the drop in the measured response relative to a control, in per cent. Read a high inhibition as strong suppression. In general, IC50 refers to the point on the concentration scale where inhibition reaches its midpoint. One may read the EC50 as the concentration needed to bring the measured effect to its halfway point.

For experiment [1], the system named is Acinetobacter baumannii. Nature of the experiment: Inhibition of […] biofilm formation at 500 uM after 24 hrs by crystal violet reporter assay. It is filed as functional. For orientation: A reporter such as luciferase makes a cellular process visible.
The subject of experiment [2] is Acinetobacter baumannii. Nature of the experiment: Inhibition of […] biofilm formation after 24 hrs by crystal violet reporter assay. It is filed as functional, organism-based.
The subject of experiment [3] is Acinetobacter baumannii. Nature of the experiment: Inhibition of […] biofilm dispersion after 24 hrs by crystal violet reporter assay. The experiment is classed as functional, organism-based.

Bounds are passed on as bounds.

`CCn1c(C(=O)NCCCc2c[nH]c(N)n2)cc(Br)c1Br` had an inhibition at 500 µM with Acinetobacter baumannii [1] of 10.3%.
Compound `Nc1nc(CCCNC(=O)c2cc(Br)c(Br)n2C2CCCC2)c[nH]1` displayed an IC50 in the experiment on Acinetobacter baumannii [2] of 40.5 µM.
`Nc1nc(CCCNC(=O)c2cc(Br)c(Br)n2-c2ccc(Br)cc2)c[nH]1`: it took 26.8 µM to reach half-maximal inhibition in the experiment on Acinetobacter baumannii [2] (IC50). The compound further registered an EC50 in the experiment on Acinetobacter baumannii [3] of 41.3 µM.
On to `Nc1nc(CCCNC(=O)c2cc(Br)c(Br)n2Cc2ccccc2)c[nH]1`, for which the half-maximal inhibitory concentration (IC50) with Acinetobacter baumannii [2] stood at 35.4 µM.
Same read-out and setting: then `Nc1nc(CCCNC(=O)c2cc(Br)c(Br)n2CCc2ccccc2)c[nH]1`, with 40.7 µM.
In the case of `Cn1c(C(=O)NCCCc2c[nH]c(N)n2)nc(Br)c1Br`, testing at 500 µM in the experiment on Acinetobacter baumannii [1] gave an inhibition of 50.7%.
In turn, `COc1ccc(Cn2c(C(=O)NCCCc3c[nH]c(N)n3)cc(Br)c2Br)cc1` came in with a 50% inhibitory concentration (IC50) with Acinetobacter baumannii [2] of 42.8 µM.
Still for that read-out and setting: the value for `Nc1nc(CCCNC(=O)c2cc(Br)c(Br)n2-c2ccccc2)c[nH]1` was 97.7 µM.
`Cn1c(C(=O)NCCCc2c[nH]c(N)n2)cc(Br)c1Br` [DIHYDROSVENTRIN]: in the experiment with Acinetobacter baumannii [2], the IC50 came to 110 µM. The compound further came in with an inhibition at 500 µM with Acinetobacter baumannii [1] above 99%.

The values above are taken from ChEMBL document CHEMBL1155866, “Effects of N-pyrrole substitution on the anti-biofilm activities of oroidin derivatives against Acinetobacter baumannii” (Bioorg Med Chem Lett, 2008).
